In series [1] the target is T1, Microsomal triglyceride transfer protein (MTP) from human small intestine microsome (Homo sapiens, UniProt P55157).
T1 construct: Human small intestine microsome was dialyzed against 10 mM phosphate buffer; tissue Tissue Transforming Technologies, Inc; host or cells: human small intestine microsome
Nature of the series: Inhibition test of interliposomal triglyceride (TG) transfer activity by MTP. The following applies: purified MTP from human small intestine microsome, 37° C., 1.5 hours. The series is classed as biochemical. The gist of the method:
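DEAE-purified human small intestine MTP (50 μL of 20 μg/mL) incubated 1.5 hours at 37° C with ^14C-triolein donor and unlabelled acceptor SUV liposomes in pH 7.4 Tris buffer with 0.5% BSA. Donor removed on DEAE cellulose; acceptor radioactivity counted, blank-corrected against DMSO control, giving percent inhibition and IC50.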

A short description of series [2]: Metabolic stability test in liver S9. The series is classed as in vitro ADME. The note with it: human liver S9 2 mg protein/mL, 37° C. The procedure: Human liver S9 (final concentration: 2 mg protein/mL), was suspended in 100 mM potassium phosphate buffer (pH 7.4, containing β-nicotinamide adenine dinucleotide phosphate: 1.3 mM, D-glucose-6-phosphate: 3.3 mM, magnesium chloride: 3.3 mM, glucose-6-phosphate dehydrogenase: 0.4 U/mL). The suspension was mixed with a solution of a sample dissolved in DMSO. The solution was incubated at 37° C. for 0, 10 and 60 minutes, and an acetonitrile containing formic acid (final concentration: 0.1%) was added thereto. The solutions were centrifuged, and the concentration of the sample (unchanged form) in the supernatant was determined by high performance liquid chromatography/mass spectrometry (LC/MS). Based on the data obtained, remaining rate (%) was calculated according to the following equation. Remaining rate(%)=amount of sample 0, 10, or 60 minutes after incubation/amount of sample at zero time after incubation×100

Series [3] is described as follows: Metabolic stability test in plasma. The series is classed as in vitro ADME. The following applies: 37° C. The method, then: A sample dissolved in DMSO was added to plasma of human or animal species (mouse and hamster). The solutions were incubated at 37° C. for 0, 10 and 60 minutes, and acetonitrile containing formic acid (final concentration: 0.1%) was added thereto. The solutions were centrifuged, and the concentration of the sample (unchanged form) in the supernatant was determined by high performance liquid chromatography/mass spectrometry (LC/MS). Based on the data obtained, the remaining rate (%) was calculated according to the following equation. Remaining rate(%)=amount of sample 0, 10, or 60 minutes after incubation/amount of sample at zero time after incubation×100 With respect to the compounds obtained in Working Examples according to the present invention (Compounds 1-1 to 1-115, 2-1, 3-1, 3-2, and 4-1 to 4-4), the results of the remaining rate in human liver S9 and plasma are shown in Tables 28 to 32.

Series [4] in a line: Stability test in buffer (pH 7.4). The series is classed as physicochemical. The note with it: 100 mM potassium phosphate buffer (pH 7.4):acetonitrile 7:3, 37° C. The procedure:
In the tables, Buf. remaining rate was determined by stability test in buffer (pH 7.4) as described below. A sample dissolved in DMSO was mixed with a mixed solution of 100 mM potassium phosphate buffer and acetonitrile in the ratio of 7:3 (v/v). The mixture was incubated at 37° C. for 0, 10, and 60 minutes, and acetonitrile containing formic acid (final concentration: 0.1%) was added thereto. The solution was centrifuged, and the concentration of the sample (unchanged form) in the supernatant was determined by high performance liquid chromatography/mass spectrometry (LC/MS). Based on the data obtained, Buf. remaining rate (%) was calculated according to the following equation. Buf. remaining rate(%)=amount of sample 0, 10, or 60 minutes after incubation/amount of sample at zero time after incubation×100

16 compounds from patent US8101774B2, “Ester derivatives and medicinal use thereof” (Japan Tobacco Inc., priority 2004, dated 2012) can be followed below.

A value given as a limit tells only on which side of the number the result lay.

T1 sequence (P55157 19-894): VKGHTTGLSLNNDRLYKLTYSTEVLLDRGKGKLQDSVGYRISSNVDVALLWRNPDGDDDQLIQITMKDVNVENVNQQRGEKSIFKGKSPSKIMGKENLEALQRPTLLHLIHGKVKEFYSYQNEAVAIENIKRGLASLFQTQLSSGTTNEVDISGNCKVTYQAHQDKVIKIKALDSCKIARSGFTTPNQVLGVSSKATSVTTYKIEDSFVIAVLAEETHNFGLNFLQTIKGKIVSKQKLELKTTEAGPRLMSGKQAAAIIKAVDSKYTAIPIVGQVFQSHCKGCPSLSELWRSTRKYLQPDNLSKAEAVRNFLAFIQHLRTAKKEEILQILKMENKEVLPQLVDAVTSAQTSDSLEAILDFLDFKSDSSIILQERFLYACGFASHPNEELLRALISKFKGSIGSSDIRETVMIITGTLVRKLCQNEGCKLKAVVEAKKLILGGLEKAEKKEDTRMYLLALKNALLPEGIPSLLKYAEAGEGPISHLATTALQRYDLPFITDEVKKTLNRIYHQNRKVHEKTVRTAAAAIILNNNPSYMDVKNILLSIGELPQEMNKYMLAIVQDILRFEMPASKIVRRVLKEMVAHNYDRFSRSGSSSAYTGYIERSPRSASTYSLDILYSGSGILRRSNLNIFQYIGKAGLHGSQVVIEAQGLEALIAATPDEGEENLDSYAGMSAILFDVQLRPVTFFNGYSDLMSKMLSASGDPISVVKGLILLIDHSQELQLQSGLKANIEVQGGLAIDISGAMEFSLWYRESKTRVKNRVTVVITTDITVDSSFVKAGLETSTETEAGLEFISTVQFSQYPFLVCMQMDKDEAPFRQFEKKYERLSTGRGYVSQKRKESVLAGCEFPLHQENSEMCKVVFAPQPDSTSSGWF
T1 sequence (P07237 18-508 partner): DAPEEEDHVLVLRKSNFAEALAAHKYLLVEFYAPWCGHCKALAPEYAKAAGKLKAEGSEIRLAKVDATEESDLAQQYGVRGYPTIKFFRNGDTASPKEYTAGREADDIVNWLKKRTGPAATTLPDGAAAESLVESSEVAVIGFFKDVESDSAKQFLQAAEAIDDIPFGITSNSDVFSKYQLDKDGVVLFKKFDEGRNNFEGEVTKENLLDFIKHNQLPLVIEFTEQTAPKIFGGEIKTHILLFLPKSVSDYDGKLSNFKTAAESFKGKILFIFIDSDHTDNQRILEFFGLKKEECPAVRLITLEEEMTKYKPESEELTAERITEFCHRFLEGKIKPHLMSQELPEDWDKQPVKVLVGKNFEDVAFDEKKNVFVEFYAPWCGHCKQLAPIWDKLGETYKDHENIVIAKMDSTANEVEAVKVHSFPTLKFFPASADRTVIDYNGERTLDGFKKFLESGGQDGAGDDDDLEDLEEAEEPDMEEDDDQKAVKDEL

On to `COC(=O)c1ccc(OC(=O)CCCc2ccc(NC(=O)c3ccccc3-c3ccc(C(F)(F)F)cc3)c(C(=O)N(C)C)c2)c(C)c1` [Compound 1-66, 4-[4-(3-dimethylcarbamoyl-4-{(4′-trifluoromethylbiphenyl-2-carbonyl)amino}phenyl)butyryloxy]-3-methylbenzoic acid methyl ester], for which the half-inhibitory concentration (IC50) (as a rule, the midpoint of a concentration-inhibition curve) in series [1] is less than 10 nM. Also, the “Remaining rate in human liver S9 (%/10 min)” value in series [2] (10 min) worked out at 3%. Further, in series [2] (60 min), the “Remaining rate in human liver S9 (%/60 min)” value was determined as 0%. In addition, the “Remaining rate in human plasma (%/60 min)” value in series [3] was determined as 8%. Also, the “Buf. remaining rate (%/10 min)” value in series [4] (10 min) is 101%. The “Buf. remaining rate (%/60 min)” value in series [4] (60 min) came out at 103%. `CN(C)C(=O)c1cc(CCCC(=O)Oc2ccc(C(=O)OC3CCCc4ccccc43)cc2)ccc1NC(=O)c1ccccc1-c1ccc(C(F)(F)F)cc1` (stereo not drawn) [Compound 1-108, 4-[4-(3-dimethylcarbamoyl-4-{(4′-trifluoromethylbiphenyl-2-carbonyl)amino}phenyl)butyryloxy]benzoic acid 1,2,3,4-tetrahydronaphthalen-1-yl ester] gave an IC50 in series [1] of less than 10 nM. As to `CC(=O)N1CCC(OC(=O)c2ccc(OC(=O)CCCc3ccc(NC(=O)c4ccccc4-c4ccc(C(F)(F)F)cc4)c(C(=O)N(C)C)c3)cc2)CC1` [Compound 1-109, 4-[4-(3-dimethylcarbamoyl-4-{(4′-trifluoromethylbiphenyl-2-carbonyl)amino}phenyl)butyryloxy]benzoic acid 1-acetylpiperidin-4-yl ester], in series [1], the 50% inhibitory concentration (IC50) is less than 10 nM. Same read-out and setting: the result for `COC(=O)c1cc(C)c(OC(=O)CCCc2ccc(NC(=O)c3ccc(C)nc3-c3ccc(C(F)(F)F)cc3)c(C(=O)N(C)C)c2)c(C(=O)OC)c1` [Compound 1-110, 4-[4-(3-dimethylcarbamoyl-4-{[6-methyl-2-(4-trifluoromethylphenyl)pyridine-3-carbonyl]amino}phenyl)butyryloxy]-5-methylisophthalic acid dimethyl ester] reads less than 10 nM; that for `COC(=O)c1cc(C(=O)OC(C)C)cc(C)c1OC(=O)CCCc1ccc(NC(=O)c2ccc(C)nc2-c2ccc(C(F)(F)F)cc2)c(C(=O)N(C)C)c1` [Compound 1-111, 4-[4-(3-dimethylcarbamoyl-4-{[6-methyl-2-(4-trifluoromethylphenyl)pyridine-3-carbonyl]amino}phenyl)butyryloxy]-5-methylisophthalic acid 1-isopropyl ester 3-methyl ester], less than 10 nM; that for `CCOC(=O)c1cc(C)c(OC(=O)CCCc2ccc(NC(=O)c3ccc(C)nc3-c3ccc(C(F)(F)F)cc3)c(C(=O)N(C)C)c2)c(Cl)c1` [Compound 1-112, 3-chloro-4-[4-(3-dimethylcarbamoyl-4-{[6-methyl-2-(4-trifluoromethylphenyl)pyridine-3-carbonyl]amino}phenyl)butyryloxy]-5-methylbenzoic acid ethyl ester], less than 10 nM. The same measure, in the same setting: in the case of `COc1cc(C(=O)OCC(=O)N(C)C)cc(Cl)c1OC(=O)CCCc1ccc(NC(=O)c2ccc(C)nc2-c2ccc(C(F)(F)F)cc2)c(C(=O)N(C)C)c1` [Compound 1-113, 3-chloro-4-[4-(3-dimethylcarbamoyl-4-{[6-methyl-2-(4-trifluoromethylphenyl)pyridine-3-carbonyl]amino}phenyl)butyryloxy]-5-methoxybenzoic acid dimethylcarbamoylmethyl ester] it was less than 10 nM; in that of `COc1cc(C(=O)OCCNC(C)=O)cc(Cl)c1OC(=O)CCCc1ccc(NC(=O)c2ccc(C)nc2-c2ccc(C(F)(F)F)cc2)c(C(=O)N(C)C)c1` [Compound 1-114, 3-chloro-4-[4-(3-dimethylcarbamoyl-4-{[6-methyl-2-(4-trifluoromethylphenyl)pyridine-3-carbonyl]amino}phenyl)butyryloxy]-5-methoxybenzoic acid 2-acetylaminoethyl ester], less than 10 nM; in that of `CC(C)n1nnc(-c2ccc(OC(=O)CCCc3ccc(NC(=O)c4ccccc4-c4ccc(C(F)(F)F)cc4)c(C(=O)N(C)C)c3)cc2)n1` [Compound 1-115, 4-(3-dimethylcarbamoyl-4-{(4′-trifluoromethylbiphenyl-2-carbonyl)amino}phenyl)butyric acid 4-(2-isopropyl-2H-tetrazol-5-yl)phenyl ester], less than 10 nM.

For the compound `COC(=O)c1ccc(OC(=O)CN(C)Cc2ccc(NC(=O)c3ccccc3-c3ccc(C(F)(F)F)cc3)c(C(=O)N(C)C)c2)cc1` [Compound 2-1, 4-[2-({3-dimethylcarbamoyl-4-[(4′-trifluoromethylbiphenyl-2-carbonyl)amino]benzyl}methylamino)acetoxy]benzoic acid methyl ester], the half-maximal inhibitory concentration (IC50) in series [1] is 10 to 100 nM. On the same count and under the same terms, in the case of `COC(=O)c1ccc(OC(=O)C2CCN(c3ccc(NC(=O)c4ccccc4-c4ccc(C(F)(F)F)cc4)c(C(=O)N(C)C)c3)CC2)cc1` [Compound 3-1, 1-{3-dimethylcarbamoyl-4-[(4′-trifluoromethylbiphenyl-2-carbonyl)amino]phenyl}piperidine-4-carboxylic acid 4-methoxycarbonylphenyl ester] it was 10 to 100 nM. `COC(=O)c1ccc(OC(=O)C2CCN(c3ccc(NC(=O)c4ccccc4-c4ccc(C(F)(F)F)cc4)c(C(=O)N(C)C)c3)CC2)c(F)c1` [Compound 3-2, 1-{3-dimethylcarbamoyl-4-[(4′-trifluoromethylbiphenyl-2-carbonyl)amino]phenyl}piperidine-4-carboxylic acid 2-fluoro-4-methoxycarbonylphenyl ester] yielded an IC50 in series [1] of 10 to 100 nM. The same measure, in the same setting: the result for `COC(=O)c1ccc(-c2nc(C)ccc2C(=O)Nc2ccc(CCCC(=O)Oc3c(C)cc(C(=O)OC)cc3Cl)cc2C(=O)N(C)C)cc1` [Compound 4-1, 3-chloro-4-[4-(3-dimethylcarbamoyl-4-{[2-(4-methoxycarbonylphenyl)-6-methylpyridine-3-carbonyl]amino}phenyl)butyryloxy]-5-methylbenzoic acid methyl ester] reads less than 10 nM; that for `COC(=O)c1ccc(-c2nc(C)ccc2C(=O)Nc2ccc(CCCC(=O)Oc3c(C)cc(C(=O)OC)cc3C(=O)OC)cc2C(=O)N(C)C)cc1` [Compound 4-2, 4-[4-(3-dimethylcarbamoyl-4-{[2-(4-methoxycarbonylphenyl)-6-methylpyridine-3-carbonyl]amino}phenyl)butyryloxy]-5-methylisophthalic acid dimethyl ester], less than 10 nM. In series [1], `COC(=O)c1ccc(OC(=O)CCCc2ccc(NC(=O)c3ccccc3-c3ccc(C(=O)OC)cc3)c(C(=O)N(C)C)c2)cc1` [Compound 4-3, 2′-{2-dimethylcarbamoyl-4-[3-(4-methoxycarbonylphenoxycarbonyl)propyl]phenyl-carbamoyl}biphenyl-4-carboxylic acid methyl ester] returned an IC50 of less than 10 nM.

Take `COC(=O)c1ccc(-c2nc(C)ccc2C(=O)Nc2ccc(CCCC(=O)Oc3c(Cl)cc(C(=O)OC)cc3OC)cc2C(=O)N(C)C)cc1` [Compound 4-4, 3-chloro-4-[4-(3-dimethylcarbamoyl-4-{[2-(4-methoxycarbonylphenyl)-6-methylpyridine-3-carbonyl]amino}phenyl)butyryloxy]-5-methoxybenzoic acid methyl ester]: the IC50 in series [1] is less than 10 nM.
